Experimental data published in patent US20020006420A1, “USE OF A 2-AMINO-ALKANE POLYOL AS AGENT FOR TREATING SKIN AGEING SIGNS” (priority 1997, published 2002).

How the values were obtained:
Type in all cases: cell-based
[1] = system: HaCat cells; experiment: Cell viability in the presence of N-acetylsphingenine (XTT kit); details: 10 μM
Description: HaCat cells are cultured as in Example 2.
(§1) 24 hours after inoculation, the cells are brought into contact with various compounds tested in a KBM medium (company Clonetics) containing insulin at 5 μg/ml and hydrocortisone at 0.5 μg/ml.
The cells are cultured in the presence of the 2-amino-1,3-octadecanediol to be tested until the cell viability is evaluated.
The N-acteylsphingenine at the concentration of 10 μM is added to the culture medium over 2 hours at the beginning of the experiment.
(§2) The cell viability is evaluated 48 hours later by the measurement of mitochondrial respiration. This is carried out with the aid of an XTT kit sold by the company Boehringer and according to the supplier's instructions.
The experiment was carried out with the following compounds at the concentration of 50 nM:
in comparison with the culture medium without alkanediol and without N-acetylsphingenine (A), and with a medium containing only N-acetylsphingenine (B).
The results, expressed as a percentage, represent the number of cells relative to the control (A), that is to say relative to a culture carried out under the same conditions in the absence of alkanediol compounds and of N-acetysphingenine.

[2] = system: HaCat cells; experiment: Effect on cell viability (mitochondrial respiration, XTT kit); details: 50 nM
Description: (§3) HaCat cells are cultured as above.
(§4) They are then inoculated at the density of 20,000 cells per well into the 24 wells of multiwell-type plates (Costar, France).
as §1, §2
Compounds A and B of the preceding example were tested at the concentration of 50 nM, as well as a derivative based on sphingenine: N-palmitoylsphingenine from Sigma (C16H).
The results, expressed as a percentage, represent the increase in the number of cells relative to the control, that is to say relative to a culture carried out under the same conditions in the absence of alkanediol compounds.

[3] = system: HaCat cells; experiment: Proliferative effect on keratinocytes in culture (cell counting, Coulter Counter); details: for increase in the number of cells relative to the control: counting 5 days after addition
Description: HaCat cells (Boukamp et al., J. Cell Biol. Vol. 106, March 1988, 761-771) are cultured in DMEM medium (company Gibco) containing amino acids (mixture of nonessential amino acids) at the concentration of 0.1 mM, penicillin and streptomycin at the respective concentrations of 50 International Units per milliliter and 50 μg/ml, glutamine at the concentration of 2 mM, sodium pyruvate at the concentration of 1 mM and foetal calf serum at 10%. These cells were inoculated at the density of 10,000 cells per well into the 24 wells of multiwell-type plates (Costar, France).
24 hours after inoculation, the cells are brought into contact with various compounds tested in a KBM medium (company Clonetics) containing 0.15 mM of calcium ion, insulin at 5 μg/ml, hydrocortisone at 0.5 μg/ml and lipid-free bovine serum albumin at 1 μg/ml.
Cell counting is carried out 5 days after the addition of the various ceramides using a cell counter of the Coulter Counter type.
The various compounds are tested at 0.5 nM, 5 nM, 50 nM and 500 nM.
The results, expressed as a percentage, represent the increase in the number of cells relative to the control, that is to say relative to a culture carried out under the same conditions in the absence of sphinganine.

[4] = system: HaCat cells; experiment: Effect on the cell cycle (BrdU incorporation, S phase); details: 50 nM
Description: as §3, §4
24 hours after inoculation, the cells are brought into contact with various compounds tested in a KBM medium (company Clonetics) containing insulin at 5 μg/ml and hydrocortisone at 0.5 μg/ml, and 5-bromo-2′-deoxyuridine (BrdU) at 1 μM.
[…] This is carried out with the aid of a “BrdU fast” kit sold by the company Boehringer and according to the supplier's instructions.
Compounds A and B of the preceding example were tested at the concentration of 50 nM.
The results, expressed as a percentage, represent the increase in the number of cells which entered the S phase relative to the control, that is to say relative to a culture carried out under the same conditions in the absence of alkanediol compounds.

| Compound | effect of N-acetylsphingenine on cell viability (in words) [1] | effect on viability of keratinocytes in culture (in words) [2] | proliferative activity on keratinocytes in culture (in words) [3] | increase in the number of cells relative to the control ([3]; 0.5 nM) | increase in the number of cells relative to the control ([3]; 5 nM) | increase in the number of cells relative to the control ([3]; 50 nM) | increase in the number of cells relative to the control ([3]; 500 nM) | cell viability: increase in the number of cells relative to the control ([2]; XTT 48 hours later) | effect on number of keratinocytes which entered the S phase (in words) [4] | increase in the number of cells which entered the S phase relative to the control ([4]; 72 hours) | increase in the number of cells which entered the S phase relative to the control ([4]; 96 hours) |
| --- | --- | --- | --- | --- | --- | --- | --- | --- | --- | --- | --- |
| N-acetylsphingenine [B] | decrease in cell viability | – | – | – | – | – | – | – | – | – | – |
| CCCCCCCCCCCCC/C=C/[C@@H](O)[C@H](CO)NC(=O)CCCCCCCCCCCCCCC [Compound C16H, N-palmitoylsphingenine, reference compound] | – | cytotoxic effect | – | – | – | – | – | – | – | – | – |
| CCCCCCCCCCCCCCCC(O)C(N)CO (single isomer, unassigned) [A, 2-amino-1,3-octadecanediol] | – | increase the viability | proliferative activity | 7% | 15% | 17% | 30% | +17% | increase the number of keratinocytes which entered the S phase | 36% | 41% |
